Test results taken from BindingDB's records for doi:10.1080/1475636021000005721 (Universit&Eacute, 2002).

Target: Serotonin N-acetyltransferase (Homo sapiens, UniProt Q16613)
Assay: AANAT Assay
Conditions: pH 6.8; 37 °C
Protocol: The compounds were evaluated in a human serotonin N-acetyltransferase assay.

Serotonin N-acetyltransferase, sequence (Q16613 whole entry): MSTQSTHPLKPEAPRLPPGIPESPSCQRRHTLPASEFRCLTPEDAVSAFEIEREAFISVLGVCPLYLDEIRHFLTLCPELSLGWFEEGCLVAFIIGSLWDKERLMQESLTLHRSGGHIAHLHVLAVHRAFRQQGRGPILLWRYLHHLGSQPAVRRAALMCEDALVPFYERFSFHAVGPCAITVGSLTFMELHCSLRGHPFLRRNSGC

Compound | IC50
COc1ccc2occ(CCNC(=O)CBr)c2c1 [AANAT Inhibitor, 8c] | 40000 nM
O=C(CBr)NCCc1csc2ccccc12 [AANAT Inhibitor, 8e] | 680 nM
O=C(CBr)NCCc1csc2ccc(Br)cc12 [AANAT Inhibitor, 8g] | 3780 nM
CCc1ccc2scc(CCNC(=O)CBr)c2c1 [AANAT Inhibitor, 8i] | 700 nM
O=C(CBr)NCCc1csc2ccc(O)cc12 [AANAT Inhibitor, 12d] | 180 nM

Results, then the compound that gave them:

IC50 | Compound
1430 nM | O=C(CBr)NCCc1c[nH]c2ccccc12
610 nM | COc1ccc2scc(CCNC(=O)CBr)c2c1 [AANAT Inhibitor, 8d]
390 nM | O=C(CBr)NCCc1csc2ccc(F)cc12 [AANAT Inhibitor, 8h]
